Experimental data: patent publication US8835644B2, “Broad spectrum benzothiophene-nitrothiazolide and other antimicrobials” (University of Virginia Patent Foundation, priority 2009, dated 2014)
Converted amounts (≈) assume the structure as drawn. Where two headings read alike, the source gives them in different places.

Key:
E. coli = assay: MIC testing by broth dilution, E. coli plank; type: cell-based, Escherichia coli
Protocol: (§1) A standard broth dilution protocol was used in 96 well microplates containing a standard dilution of the microorganism to be tested in 100 microliters of the appropriate medium. Appropriate medium: E. coli, LB medium; Staphylococcus strains, Trypticase Soy; and for H. pylori and C. jejuni, Brain Heart Infusion. The compounds to be tested were set at 32 μg/ml in 200 microliters in well one and then serially diluted to provide a range from 32 to 0.06. The wells were scored visually at 24 h. The well where there was no growth was recorded as the MIC. Clostridium difficile was tested by agar diffusion and disk diffusion (Kirby Bower) methods under anaerobic conditions on Wilkins Chalgrin agar. In these assays, zone of inhibited growth was measured and compared by relative ratio to the zone recorded for NTZ.
(§2) Representative compounds of the invention were tested in a series of assays against a series of organisms as described above. […] The organisms tested include, C. difficile, H. pylori, C. jejuni, MRSA, S. epidermidis, and E. coli. S. epidermidis and E. coli were tested in the plank and biofilm assay. A disk diffusion assay was also used for C. difficile. Direct PFOR enzyme assays were also performed. All analogues and derivatives were not tested on every organism in every type of assay (the “-” in each table means that it was not tested).

MRSA = assay: MIC testing by broth dilution, MRSA; type: cell-based, Staphylococcus aureus
Protocol: as §1, §2

S. epidermidis = assay: MIC testing by broth dilution, S. epidermidis plank; type: cell-based, Staphylococcus epidermidis
Protocol: as §1, §2

C. jejuni = assay: MIC testing by broth dilution, C. jejuni; type: cell-based, Campylobacter jejuni
Protocol: as §1, §2

H. pylori = assay: MIC testing by broth dilution, H. pylori; type: cell-based, Helicobacter pylori
Protocol: as §1, §2

[1] = broth dilution, LB medium, 24 h, read-out: MIC (μM) E. coli Plank
[2] = broth dilution, Trypticase Soy, 24 h, read-out: MIC (μM) MRSA
[3] = broth dilution, Trypticase Soy, 24 h, read-out: MIC (μM) S. epidermidis Plank
[4] = broth dilution, Brain Heart Infusion, 24 h, read-out: MIC (μM) C. jejuni
[5] = broth dilution, Brain Heart Infusion, 24 h, read-out: MIC (μM) H. pylori
[6] = planktonic, Furan analogues table, read-out: MIC E. coli Plank
[7] = Furan analogues table, read-out: MIC MRSA
[8] = planktonic, Furan analogues table, read-out: MIC S. epidermidis Plank
[9] = Furan analogues table, read-out: MIC C. jejuni
[10] = Furan analogues table, read-out: MIC H. pylori

Question: What does the source list for `O=C(Nc1ncc([N+](=O)[O-])s1)c1sccc1Cl` [VPC16a1009]?
Answer: MIC (E. coli; planktonic, Thiophene analogues table, read-out: MIC E. coli Plank): 110.5 µM (≈ 32 µg/mL); MIC (MRSA; Thiophene analogues table, read-out: MIC MRSA): 20.7 µM (≈ 6 µg/mL); MIC (S. epidermidis; planktonic, Thiophene analogues table, read-out: MIC S. epidermidis Plank): 55.2 µM (≈ 16 µg/mL); MIC (C. jejuni; Thiophene analogues table, read-out: MIC C. jejuni): 20.7 µM (≈ 6 µg/mL); MIC (H. pylori; Thiophene analogues table, read-out: MIC H. pylori): 5.2 µM (≈ 1.51 µg/mL)

Question: `O=C(Cc1ccccc1)Nc1ncc([N+](=O)[O-])s1` [VPC16a1013] was tested. Which MIC (E. coli; [1]) did it give?
Answer: 121.5 µM (≈ 32 µg/mL)

Question: What about the MIC (MRSA; [2]) of the same molecule?
Answer: 121.5 µM (≈ 32 µg/mL)

Question: What about the MIC (S. epidermidis; [3]) of the same molecule?
Answer: 22.8 µM (≈ 6 µg/mL)

Question: What about the MIC (C. jejuni; [4]) of the same molecule?
Answer: 1.8 µM (≈ 0.474 µg/mL)

Question: And the MIC (H. pylori; [5])?
Answer: 21.6 µM (≈ 5.69 µg/mL)

Question: What does the source list for `Cn1cc(C(=O)Nc2ncc([N+](=O)[O-])s2)c2ccccc21` [VPC16a1014]?
Answer: MIC (E. coli; [1]): 105.9 µM (≈ 32 µg/mL); MIC (MRSA; [2]): 105.9 µM (≈ 32 µg/mL); MIC (S. epidermidis; [3]): 5.0 µM (≈ 1.51 µg/mL); MIC (C. jejuni; [4]): 19.9 µM (≈ 6.02 µg/mL); MIC (H. pylori; [5]): 1.2 µM (≈ 0.363 µg/mL)

Question: Which MIC (E. coli; [1]) does the source give for `O=C(Nc1ncc([N+](=O)[O-])s1)c1ccncc1F` [VPC16a1053] here?
Answer: 119.3 µM (≈ 32 µg/mL)

Question: And the MIC (MRSA; [2])?
Answer: 119.3 µM (≈ 32 µg/mL)

Question: What about the MIC (S. epidermidis; [3]) of the same molecule?
Answer: 119.3 µM (≈ 32 µg/mL)

Question: What about the MIC (C. jejuni; [4]) of the same molecule?
Answer: 14.9 µM (≈ 4 µg/mL)

Question: And the MIC (H. pylori; [5])?
Answer: 3.7 µM (≈ 0.992 µg/mL)

Question: Which results are given for `Cc1ccccc1-c1ccc(C(=O)Nc2ncc([N+](=O)[O-])s2)o1` [VPC16a1103]?
Answer: MIC (E. coli; [6]): 97.2 µM (≈ 32 µg/mL); MIC (MRSA; [7]): 12.1 µM (≈ 3.98 µg/mL); MIC (S. epidermidis; [8]): 12.1 µM (≈ 3.98 µg/mL); MIC (C. jejuni; [9]): 24.3 µM (≈ 8 µg/mL); MIC (H. pylori; [10]): 3.8 µM (≈ 1.25 µg/mL)

Question: `O=C(Nc1ncc([N+](=O)[O-])s1)c1ccc(F)cc1F` [VPC16b1009] was tested. Which MIC (E. coli; [1]) did it give?
Answer: 112.2 µM (≈ 32 µg/mL)

Question: What about the MIC (MRSA; [2]) of the same molecule?
Answer: 28.0 µM (≈ 7.99 µg/mL)

Question: And the MIC (S. epidermidis; [3])?
Answer: 42.1 µM (≈ 12 µg/mL)

Question: And the MIC (C. jejuni; [4])?
Answer: 7.0 µM (≈ 2 µg/mL)

Question: And the MIC (H. pylori; [5])?
Answer: 0.4 µM (≈ 0.114 µg/mL)

Question: `O=C(Nc1ncc([N+](=O)[O-])s1)c1c(F)cccc1F` [VPC16b1010] was tested. Which MIC (E. coli; [1]) did it give?
Answer: 112.2 µM (≈ 32 µg/mL)

Question: What about the MIC (MRSA; [2]) of the same molecule?
Answer: 28.0 µM (≈ 7.99 µg/mL)

Question: What about the MIC (S. epidermidis; [3]) of the same molecule?
Answer: 28.0 µM (≈ 7.99 µg/mL)

Question: And the MIC (C. jejuni; [4])?
Answer: 14.0 µM (≈ 3.99 µg/mL)

Question: What about the MIC (H. pylori; [5]) of the same molecule?
Answer: 0.7 µM (≈ 0.2 µg/mL)

Question: With `O=C(Nc1ncc([N+](=O)[O-])s1)c1cc(F)c(F)cc1F` [VPC16b1012] as the molecule, how does the MIC (E. coli; [1]) read?
Answer: 105.5 µM (≈ 32 µg/mL)

Question: What about the MIC (MRSA; [2]) of the same molecule?
Answer: 33.0 µM (≈ 10 µg/mL)

Question: And the MIC (S. epidermidis; [3])?
Answer: 33.0 µM (≈ 10 µg/mL)

Question: What about the MIC (C. jejuni; [4]) of the same molecule?
Answer: 9.9 µM (≈ 3 µg/mL)

Question: And the MIC (H. pylori; [5])?
Answer: 0.8 µM (≈ 0.243 µg/mL)

Question: `O=C(Nc1ncc([N+](=O)[O-])s1)c1cc(F)c(F)c(F)c1` [VPC16b1014] was tested. Which MIC (E. coli; [1]) did it give?
Answer: 105.5 µM (≈ 32 µg/mL)

Question: And the MIC (MRSA; [2])?
Answer: 29.7 µM (≈ 9.01 µg/mL)

Question: And the MIC (S. epidermidis; [3])?
Answer: 66.0 µM (≈ 20 µg/mL)

Question: What about the MIC (C. jejuni; [4]) of the same molecule?
Answer: 4.9 µM (≈ 1.49 µg/mL)

Question: What about the MIC (H. pylori; [5]) of the same molecule?
Answer: 1.2 µM (≈ 0.364 µg/mL)

Question: Which results are given for `O=C(Nc1ncc([N+](=O)[O-])s1)c1ccc(F)c(F)c1` [VPC16b1019]?
Answer: MIC (E. coli; [1]): 84.1 µM (≈ 24 µg/mL); MIC (MRSA; [2]): 10.5 µM (≈ 2.99 µg/mL); MIC (S. epidermidis; [3]): 28.0 µM (≈ 7.99 µg/mL); MIC (C. jejuni; [4]): 5.3 µM (≈ 1.51 µg/mL); MIC (H. pylori; [5]): 1.8 µM (≈ 0.513 µg/mL)

Question: What does the source list for `Cn1c(C(=O)Nc2ncc([N+](=O)[O-])s2)cc2ccccc21` [VPC16b1028]?
Answer: MIC (E. coli; [1]): 105.9 µM (≈ 32 µg/mL); MIC (MRSA; [2]): 105.9 µM (≈ 32 µg/mL); MIC (S. epidermidis; [3]): 105.9 µM (≈ 32 µg/mL); MIC (C. jejuni; [4]): 39.7 µM (≈ 12 µg/mL); MIC (H. pylori; [5]): 1.2 µM (≈ 0.363 µg/mL)

Question: What does the source list for `O=C(Nc1ncc([N+](=O)[O-])s1)C1CC1c1ccccc1` (centres unmarked) [VPC16b1032]?
Answer: MIC (E. coli; [1]): 110.6 µM (≈ 32 µg/mL); MIC (MRSA; [2]): 13.8 µM (≈ 3.99 µg/mL); MIC (S. epidermidis; [3]): 13.8 µM (≈ 3.99 µg/mL); MIC (C. jejuni; [4]): 26.6 µM (≈ 7.7 µg/mL); MIC (H. pylori; [5]): 1.7 µM (≈ 0.492 µg/mL)

Question: How did the MIC (E. coli; [6]) turn out when `O=C(Nc1ncc([N+](=O)[O-])s1)c1ccc(-c2cccc(F)c2)o1` [VPC16b1115] was run?
Answer: 96.0 µM (≈ 32 µg/mL)

Question: And the MIC (MRSA; [7])?
Answer: 24.0 µM (≈ 8 µg/mL)

Question: And the MIC (S. epidermidis; [8])?
Answer: 12.0 µM (≈ 4 µg/mL)

Question: And the MIC (C. jejuni; [9])?
Answer: 24.0 µM (≈ 8 µg/mL)

Question: And the MIC (H. pylori; [10])?
Answer: 1.5 µM (≈ 0.5 µg/mL)

Question: How did the MIC (E. coli; [6]) turn out when `O=C(Nc1ncc([N+](=O)[O-])s1)c1ccc(-c2ccccc2Cl)o1` [VPC16b1118] was run?
Answer: 91.5 µM (≈ 32 µg/mL)

Question: And the MIC (MRSA; [7])?
Answer: 11.4 µM (≈ 3.99 µg/mL)

Question: And the MIC (S. epidermidis; [8])?
Answer: 5.7 µM (≈ 1.99 µg/mL)

Question: What about the MIC (C. jejuni; [9]) of the same molecule?
Answer: 11.4 µM (≈ 3.99 µg/mL)

Question: And the MIC (H. pylori; [10])?
Answer: 1.4 µM (≈ 0.49 µg/mL)

Question: For `O=C(Nc1ncc([N+](=O)[O-])s1)c1ccc(-c2cccc(Cl)c2)o1` [VPC16b1119], which MIC (E. coli; [6]) is on record?
Answer: 91.5 µM (≈ 32 µg/mL)

Question: What about the MIC (MRSA; [7]) of the same molecule?
Answer: 91.5 µM (≈ 32 µg/mL)

Question: What about the MIC (S. epidermidis; [8]) of the same molecule?
Answer: 91.5 µM (≈ 32 µg/mL)

Question: What about the MIC (C. jejuni; [9]) of the same molecule?
Answer: 22.9 µM (≈ 8.01 µg/mL)

Question: And the MIC (H. pylori; [10])?
Answer: 1.1 µM (≈ 0.385 µg/mL)

Question: Which results are given for `O=C(Nc1ncc([N+](=O)[O-])s1)c1ccc(-c2ccc3c(c2)OCO3)o1` [VPC16b1132]?
Answer: MIC (E. coli; [6]): 89.1 µM (≈ 32 µg/mL); MIC (MRSA; [7]): 89.1 µM (≈ 32 µg/mL); MIC (S. epidermidis; [8]): 89.1 µM (≈ 32 µg/mL); MIC (C. jejuni; [9]): 89.1 µM (≈ 32 µg/mL); MIC (H. pylori; [10]): 1.4 µM (≈ 0.503 µg/mL)
